The values that follow come from US9340590B2 (priority 2011, dated 2016).

What all share (test): cell-based
The target in one experiment is hNav1.5 (Homo sapiens, UniProt Q14524).
Another experiment has as its target hNav1.3 (Homo sapiens, UniProt Q9NY46). The following applies: IonWorks Quattro, read-out: IWQ Use Nav1.3. (In general: The patch-clamp technique gives a direct electrical read-out from membranes.)
In the next experiment the target is hNav1.7 (Homo sapiens, UniProt Q15858). Type of experiment: cell-based. The following applies: IonWorks Quattro, read-out: IWQ Use Nav1.7.
Chain of hNav1.7 (Q15858 whole entry, looked up): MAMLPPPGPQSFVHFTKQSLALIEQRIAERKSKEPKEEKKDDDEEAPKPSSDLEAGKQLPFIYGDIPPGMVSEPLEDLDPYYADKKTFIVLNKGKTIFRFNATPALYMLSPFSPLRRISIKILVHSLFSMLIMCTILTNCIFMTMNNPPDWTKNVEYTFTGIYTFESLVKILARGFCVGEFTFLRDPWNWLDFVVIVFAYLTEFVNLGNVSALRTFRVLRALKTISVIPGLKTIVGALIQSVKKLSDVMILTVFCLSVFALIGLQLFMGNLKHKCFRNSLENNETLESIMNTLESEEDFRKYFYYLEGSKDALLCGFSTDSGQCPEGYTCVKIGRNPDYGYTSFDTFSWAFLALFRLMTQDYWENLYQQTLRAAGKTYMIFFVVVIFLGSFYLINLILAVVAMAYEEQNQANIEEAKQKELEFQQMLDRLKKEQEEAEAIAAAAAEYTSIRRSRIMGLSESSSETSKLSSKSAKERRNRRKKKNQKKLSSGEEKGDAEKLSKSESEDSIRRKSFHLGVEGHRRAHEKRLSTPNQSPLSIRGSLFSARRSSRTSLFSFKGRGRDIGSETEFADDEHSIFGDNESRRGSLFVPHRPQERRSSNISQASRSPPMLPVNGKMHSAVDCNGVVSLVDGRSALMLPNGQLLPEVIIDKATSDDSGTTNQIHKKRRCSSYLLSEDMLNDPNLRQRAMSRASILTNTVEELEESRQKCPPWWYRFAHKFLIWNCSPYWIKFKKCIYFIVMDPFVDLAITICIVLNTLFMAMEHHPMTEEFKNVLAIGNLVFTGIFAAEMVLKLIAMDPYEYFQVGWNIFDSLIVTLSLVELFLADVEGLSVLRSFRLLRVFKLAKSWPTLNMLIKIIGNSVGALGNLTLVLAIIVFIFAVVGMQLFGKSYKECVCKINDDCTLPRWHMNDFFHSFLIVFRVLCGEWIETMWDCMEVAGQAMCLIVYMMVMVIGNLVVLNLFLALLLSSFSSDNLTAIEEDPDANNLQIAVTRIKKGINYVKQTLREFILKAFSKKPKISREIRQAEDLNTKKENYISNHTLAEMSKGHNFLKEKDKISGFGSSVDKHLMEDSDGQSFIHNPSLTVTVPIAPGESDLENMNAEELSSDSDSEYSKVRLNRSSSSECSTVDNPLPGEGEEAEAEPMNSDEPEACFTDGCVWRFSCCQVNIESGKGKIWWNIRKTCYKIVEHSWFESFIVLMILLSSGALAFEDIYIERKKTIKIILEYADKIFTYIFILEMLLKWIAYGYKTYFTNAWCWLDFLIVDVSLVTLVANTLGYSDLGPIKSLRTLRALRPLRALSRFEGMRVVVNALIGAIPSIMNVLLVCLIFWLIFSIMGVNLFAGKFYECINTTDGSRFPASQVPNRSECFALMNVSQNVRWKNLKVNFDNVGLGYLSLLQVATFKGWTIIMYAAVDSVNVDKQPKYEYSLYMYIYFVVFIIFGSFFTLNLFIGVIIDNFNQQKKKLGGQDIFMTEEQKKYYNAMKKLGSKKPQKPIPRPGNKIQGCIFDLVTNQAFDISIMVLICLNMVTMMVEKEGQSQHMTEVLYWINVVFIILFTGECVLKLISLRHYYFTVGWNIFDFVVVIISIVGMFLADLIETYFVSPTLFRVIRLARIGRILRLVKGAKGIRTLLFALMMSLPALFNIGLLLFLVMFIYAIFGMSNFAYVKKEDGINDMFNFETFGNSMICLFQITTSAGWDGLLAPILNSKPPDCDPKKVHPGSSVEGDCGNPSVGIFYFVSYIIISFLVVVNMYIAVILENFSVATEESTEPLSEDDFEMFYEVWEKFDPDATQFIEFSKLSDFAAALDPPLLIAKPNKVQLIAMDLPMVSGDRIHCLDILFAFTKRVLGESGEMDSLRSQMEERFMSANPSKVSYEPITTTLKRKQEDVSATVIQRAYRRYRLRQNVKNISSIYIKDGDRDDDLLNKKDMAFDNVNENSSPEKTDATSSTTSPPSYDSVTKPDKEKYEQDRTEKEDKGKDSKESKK
Setting [1] is: IonWorks Quattro, clamped to −110 mV, depolarized to −10 mV, 5 min after compound, n=2, read-out: IWQ Use Nav1.5.
The mark [2] stands for this setting: clamped to −110 mV, depolarized to −10 mV, 5 min after compound, n=2.

Read-outs that look alike come from different tables or passages of the source. Positions of bridges follow the written chain, without caps; N, C: chain ends. Non-standard residues stand in square brackets, D forms with d. Residues, ends and D or L forms follow the SMILES beside them. 2Nal = N[C@@H](Cc1ccc2ccccc2c1)C(=O)O; pGlu = O=C1CC[C@@H](C(=O)O)N1; Abu = CC[C@H](N)C(=O)O

Chain of hNav1.3 (Q9NY46 whole entry, looked up): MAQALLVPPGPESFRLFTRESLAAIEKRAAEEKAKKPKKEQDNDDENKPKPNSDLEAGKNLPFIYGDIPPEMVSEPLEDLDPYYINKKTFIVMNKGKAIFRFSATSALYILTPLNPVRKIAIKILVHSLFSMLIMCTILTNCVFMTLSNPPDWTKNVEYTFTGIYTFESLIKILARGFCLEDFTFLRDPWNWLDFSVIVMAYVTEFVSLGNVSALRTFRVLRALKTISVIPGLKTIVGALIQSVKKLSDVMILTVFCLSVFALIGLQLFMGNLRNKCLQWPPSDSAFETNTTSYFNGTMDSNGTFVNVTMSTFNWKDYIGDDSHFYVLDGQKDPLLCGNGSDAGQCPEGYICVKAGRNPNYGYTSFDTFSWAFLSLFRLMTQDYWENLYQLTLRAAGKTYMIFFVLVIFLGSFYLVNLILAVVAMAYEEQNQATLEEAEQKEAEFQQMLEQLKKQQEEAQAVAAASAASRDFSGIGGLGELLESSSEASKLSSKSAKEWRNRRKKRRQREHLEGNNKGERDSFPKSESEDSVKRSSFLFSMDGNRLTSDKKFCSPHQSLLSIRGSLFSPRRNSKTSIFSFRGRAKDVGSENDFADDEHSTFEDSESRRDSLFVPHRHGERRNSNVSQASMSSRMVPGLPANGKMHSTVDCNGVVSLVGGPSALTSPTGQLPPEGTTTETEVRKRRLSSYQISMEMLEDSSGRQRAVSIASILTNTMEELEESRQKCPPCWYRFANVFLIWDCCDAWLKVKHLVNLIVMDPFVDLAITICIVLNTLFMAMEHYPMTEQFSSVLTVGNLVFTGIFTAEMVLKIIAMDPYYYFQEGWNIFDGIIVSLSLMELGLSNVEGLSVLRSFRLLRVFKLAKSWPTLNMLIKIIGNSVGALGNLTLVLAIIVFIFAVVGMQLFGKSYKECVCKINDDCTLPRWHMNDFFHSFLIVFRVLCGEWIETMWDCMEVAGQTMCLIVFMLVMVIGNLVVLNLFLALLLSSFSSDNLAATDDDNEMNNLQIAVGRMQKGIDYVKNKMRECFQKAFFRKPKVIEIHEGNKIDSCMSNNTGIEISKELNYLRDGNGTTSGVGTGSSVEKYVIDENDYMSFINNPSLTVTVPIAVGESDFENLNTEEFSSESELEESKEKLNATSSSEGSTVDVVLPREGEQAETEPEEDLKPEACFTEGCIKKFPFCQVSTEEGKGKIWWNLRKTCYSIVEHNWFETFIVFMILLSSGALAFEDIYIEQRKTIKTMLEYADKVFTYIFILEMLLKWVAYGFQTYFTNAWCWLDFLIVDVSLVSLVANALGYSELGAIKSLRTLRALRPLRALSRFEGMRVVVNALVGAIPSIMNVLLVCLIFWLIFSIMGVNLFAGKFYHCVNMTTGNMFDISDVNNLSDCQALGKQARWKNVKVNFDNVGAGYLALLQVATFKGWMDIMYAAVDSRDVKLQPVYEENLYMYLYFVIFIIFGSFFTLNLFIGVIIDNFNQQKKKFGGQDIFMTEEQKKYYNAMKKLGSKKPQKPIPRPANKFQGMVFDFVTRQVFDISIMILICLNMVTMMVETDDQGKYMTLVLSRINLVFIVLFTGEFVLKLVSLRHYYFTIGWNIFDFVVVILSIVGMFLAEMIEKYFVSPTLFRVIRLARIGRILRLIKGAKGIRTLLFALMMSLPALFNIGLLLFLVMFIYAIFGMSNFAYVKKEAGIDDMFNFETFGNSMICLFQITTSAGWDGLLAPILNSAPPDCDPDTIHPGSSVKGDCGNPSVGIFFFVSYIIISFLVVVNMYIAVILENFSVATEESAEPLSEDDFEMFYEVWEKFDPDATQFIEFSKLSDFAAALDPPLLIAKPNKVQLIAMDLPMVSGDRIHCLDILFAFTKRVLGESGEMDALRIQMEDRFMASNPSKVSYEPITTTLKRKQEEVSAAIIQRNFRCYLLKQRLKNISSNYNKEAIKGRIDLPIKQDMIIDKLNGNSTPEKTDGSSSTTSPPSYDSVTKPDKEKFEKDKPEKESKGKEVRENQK

As to `CC[C@@H]1NC(=O)[C@@H]2CSSC[C@@H](C(=O)N[C@@H](CCCCN)C(=O)N[C@@H](Cc3ccc(O)cc3)C(=O)N[C@H](C(=O)N[C@@H](Cc3ccccc3)C(N)=O)C(C)C)NC(=O)[C@H](Cc3c[nH]c4ccccc34)NC(=O)[C@H](CCCCN)NC(=O)[C@H](Cc3c[nH]cn3)NC(=O)[C@H]([C@@H](C)O)NC(=O)[C@H](CCCNC(=N)N)NC(=O)[C@H](CO)NC(=O)[C@H](CSSC[C@H](NC(=O)[C@H](CCCCN)NC(=O)[C@H](CCCNC(=N)N)NC(=O)[C@H](CCSC)NC(=O)[C@H](Cc3ccccc3)NC(=O)CNC(=O)[C@H](CC(C)C)NC(=O)[C@H](CC)NC(=O)[C@@H](N)CC(=O)O)C(=O)N[C@@H]([C@@H](C)CC)C(=O)N3CCC[C@H]3C(=O)N[C@@H](CC(=O)O)C(=O)N[C@@H](CC(N)=O)C(=O)N[C@@H](CC(=O)O)C(=O)N[C@@H](CCCCN)C(=O)N2)NC(=O)[C@H](C(C)C)NC(=O)[C@H](CC(C)C)NC(=O)[C@H](CC(N)=O)NC(=O)[C@@H]2CCCN2C(=O)[C@H](CCCNC(=N)N)NC1=O` [SEQ ID NO: 125, [2-Abu-2,17]GpTx-1] (H-D[Abu]LGFMRKCIPDNDKC[Abu]RPNLVCSRTHKWCKYVF-NH2; disulfide 9-23, 16-30), the IC50 worked out at 9.51 µM at hNav1.5 (IonWorks Quattro, use-dependent block, hNav1.5, read-out: IWQ Use Nav1.5); 0.24 µM on hNav1.3 (use-dependent block, hNav1.3); 0.3 µM at hNav1.7 (use-dependent block, hNav1.7).

On to `CC[C@H](C)[C@@H]1NC(=O)[C@@H]2CSSC[C@@H]3NC(=O)[C@H](C(C)C)NC(=O)[C@H](CC(C)C)NC(=O)[C@H](CC(N)=O)NC(=O)[C@@H]4CCCN4C(=O)[C@H](CCCNC(=N)N)NC(=O)[C@H](CSSC[C@H](NC(=O)[C@@H](N)CC(=O)O)C(=O)N[C@@H](CC(C)C)C(=O)NCC(=O)N[C@@H](Cc4ccc5ccccc5c4)C(=O)N[C@@H](CCSC)C(=O)N[C@@H](CCCNC(=N)N)C(=O)N[C@@H](CCCCN)C(=O)N2)NC(=O)[C@H](CSSC[C@@H](C(=O)N[C@@H](CCCCN)C(=O)N[C@@H](Cc2ccc(O)cc2)C(=O)N[C@H](C(=O)N[C@@H](Cc2ccccc2)C(N)=O)C(C)C)NC(=O)[C@H](Cc2c[nH]c4ccccc24)NC(=O)[C@H](CCCCN)NC(=O)[C@H](Cc2c[nH]cn2)NC(=O)[C@H]([C@@H](C)O)NC(=O)[C@H](CCCNC(=N)N)NC(=O)[C@H](CO)NC3=O)NC(=O)[C@H](CCCCN)NC(=O)[C@H](CC(=O)O)NC(=O)[C@H](CC(N)=O)NC(=O)[C@H](CC(=O)O)NC(=O)[C@@H]2CCCN2C1=O` [SEQ ID NO: 128], for which the figures for the IC50 on hNav1.5 (setting [1]), on hNav1.3 (setting [2]) and on hNav1.7 (setting [2]) were 6.11 µM, 0.05 µM and 0.11 µM, respectively.

Regarding `CC[C@H](C)[C@@H]1NC(=O)[C@@H]2CSSC[C@@H]3NC(=O)[C@H](C(C)C)NC(=O)[C@H](CC(C)C)NC(=O)[C@H](CC(N)=O)NC(=O)[C@@H]4CCCN4C(=O)[C@H](CCCNC(=N)N)NC(=O)[C@H](CSSC[C@H](NC(=O)[C@@H](N)CC(=O)O)C(=O)N[C@@H](CC(C)C)C(=O)NCC(=O)N[C@@H](Cc4ccccc4)C(=O)N[C@@H](CCSC)C(=O)N[C@@H](CCCNC(=N)N)C(=O)N[C@@H](CCCCN)C(=O)N2)NC(=O)[C@H](CSSC[C@@H](C(=O)N[C@@H](CCCCN)C(=O)N[C@@H](Cc2ccc(O)cc2)C(=O)N[C@H](C(=O)N[C@@H](Cc2ccccc2)C(N)=O)C(C)C)NC(=O)[C@H](Cc2ccc4ccccc4c2)NC(=O)[C@H](CCCCN)NC(=O)[C@H](Cc2c[nH]cn2)NC(=O)[C@H]([C@@H](C)O)NC(=O)[C@H](CCCNC(=N)N)NC(=O)[C@H](CO)NC3=O)NC(=O)[C@H](CCCCN)NC(=O)[C@H](CC(=O)O)NC(=O)[C@H](CC(N)=O)NC(=O)[C@H](CC(=O)O)NC(=O)[C@@H]2CCCN2C1=O` [SEQ ID NO: 129, [2-Nal29]GpTx-1] (H-DCLGFMRKCIPDNDKCCRPNLVCSRTHK[2Nal]CKYVF-NH2; disulfide 2-17, 9-23, 16-30), the IC50 is 11.7 µM on hNav1.5 (Table 24, IonWorks Quattro, use, […], read-out: IWQ Use Nav1.5); 0.73 µM at hNav1.3 (Table 24, use, […]); 0.58 µM at hNav1.7 (Table 24, use, […]).

For the molecule `CC[C@H](C)[C@@H]1NC(=O)[C@@H]2CSSC[C@@H]3NC(=O)[C@H](C(C)C)NC(=O)[C@H](CC(C)C)NC(=O)[C@H](CC(N)=O)NC(=O)[C@@H]4CCCN4C(=O)[C@H](CCCNC(=N)N)NC(=O)[C@H](CSSC[C@H](NC(=O)[C@@H](N)CC(=O)O)C(=O)N[C@@H](CC(C)C)C(=O)NCC(=O)N[C@@H](Cc4ccccc4)C(=O)N[C@@H](CCSC)C(=O)N[C@@H](CCCNC(=N)N)C(=O)N[C@@H](CCCCN)C(=O)N2)NC(=O)[C@H](CSSC[C@@H](C(=O)N[C@@H](CCCCN)C(=O)N[C@@H](Cc2ccc(O)cc2)C(=O)N[C@H](C(=O)N[C@@H](Cc2ccccc2)C(N)=O)C(C)C)NC(=O)[C@H](Cc2c[nH]c4ccccc24)NC(=O)[C@H](CCCCN)NC(=O)[C@H](Cc2cnc[nH]2)NC(=O)[C@H](CCC(=O)O)NC(=O)[C@H](CCCNC(=N)N)NC(=O)[C@H](CO)NC3=O)NC(=O)[C@H](CCCCN)NC(=O)[C@H](CC(=O)O)NC(=O)[C@H](CC(N)=O)NC(=O)[C@H](CC(=O)O)NC(=O)[C@@H]2CCCN2C1=O` [SEQ ID NO: 152, [Glu26]GpTx-1] (H-DCLGFMRKCIPDNDKCCRPNLVCSREHKWCKYVF-NH2; disulfide 2-17, 9-23, 16-30), the IC50 was found to be 17.2 µM at hNav1.5 (IWQ Use Nav1.5 (μM)); 0.71 µM on hNav1.3 (Table 22, use, […]); 0.68 µM at hNav1.7 (Table 22, use, […]).

With `CC[C@H](C)[C@@H]1NC(=O)[C@@H]2CSSC[C@@H]3NC(=O)[C@H](C(C)C)NC(=O)[C@H](CC(C)C)NC(=O)[C@H](CC(N)=O)NC(=O)[C@@H]4CCCN4C(=O)[C@H](CCCNC(=N)N)NC(=O)[C@H](CSSC[C@H](NC(=O)[C@@H](N)CC(=O)O)C(=O)N[C@@H](CC(C)C)C(=O)NCC(=O)N[C@@H](Cc4ccccc4)C(=O)N[C@@H](CCCCN)C(=O)N[C@@H](CCCNC(=N)N)C(=O)N[C@@H](CCCCN)C(=O)N2)NC(=O)[C@H](CSSC[C@@H](C(=O)N[C@@H](CCCCN)C(=O)N[C@@H](Cc2ccc(O)cc2)C(=O)N[C@H](C(=O)N[C@@H](Cc2ccccc2)C(N)=O)C(C)C)NC(=O)[C@H](Cc2c[nH]c4ccccc24)NC(=O)[C@H](CCCCN)NC(=O)[C@H](Cc2cnc[nH]2)NC(=O)[C@H]([C@@H](C)O)NC(=O)[C@H](CCCNC(=N)N)NC(=O)[C@H](CO)NC3=O)NC(=O)[C@H](CCCCN)NC(=O)[C@H](CC(=O)O)NC(=O)[C@H](CC(N)=O)NC(=O)[C@H](CC(=O)O)NC(=O)[C@@H]2CCCN2C1=O` [SEQ ID NO: 154] (H-DCLGFKRKCIPDNDKCCRPNLVCSRTHKWCKYVF-NH2; disulfide 2-17, 9-23, 16-30), the IC50 at hNav1.5 (setting [1]) stood at 13.9 µM; at hNav1.3 (setting [2]), 8.49 µM; on hNav1.7 (setting [2]), 14.5 µM.

Take `CC[C@H](C)[C@@H]1NC(=O)[C@@H]2CSSC[C@@H]3NC(=O)[C@H](C(C)C)NC(=O)[C@H](CC(C)C)NC(=O)[C@H](CC(N)=O)NC(=O)[C@@H]4CCCN4C(=O)[C@H](CCCNC(=N)N)NC(=O)[C@H](CSSC[C@H](NC(=O)[C@@H](N)CC(=O)O)C(=O)N[C@@H](CC(C)C)C(=O)NCC(=O)N[C@@H](Cc4ccccc4)C(=O)N[C@@H](CCSC)C(=O)N[C@@H](CCCNC(=N)N)C(=O)N[C@@H](CCCCN)C(=O)N2)NC(=O)[C@H](CSSC[C@@H](C(=O)N[C@@H](CCCCN)C(=O)N[C@@H](Cc2ccc(O)cc2)C(=O)N[C@H](C(=O)N[C@@H](Cc2ccccc2)C(N)=O)C(C)C)NC(=O)[C@H](Cc2c[nH]c4ccccc24)NC(=O)[C@H](CCCCN)NC(=O)[C@H](Cc2cnc[nH]2)NC(=O)[C@H]([C@@H](C)O)NC(=O)[C@H](CCCNC(=N)N)NC(=O)[C@H](CO)NC3=O)NC(=O)[C@H](CCCCN)NC(=O)[C@H](CC(=O)O)NC(=O)[C@H](CC(N)=O)NC(=O)[C@H](CC(=O)O)NC(=O)[C@H](Cc2c[nH]c3ccccc23)NC1=O` [SEQ ID NO: 171, [Trp11]GpTx-1] (H-DCLGFMRKCIWDNDKCCRPNLVCSRTHKWCKYVF-NH2; disulfide 2-17, 9-23, 16-30): the IC50 at hNav1.5 (IonWorks Quattro, Use, read-out: IWQ Use Nav1.5) is 9.5 µM; on hNav1.3 (Use) it was 0.04 µM; on hNav1.7 (Use), 0.07 µM.

`CC[C@H](C)[C@@H]1NC(=O)[C@@H]2CSSC[C@@H]3NC(=O)[C@H](C(C)C)NC(=O)[C@H](CC(C)C)NC(=O)[C@H](CC(N)=O)NC(=O)[C@@H]4CCCN4C(=O)[C@H](CCCNC(=N)N)NC(=O)[C@H](CSSC[C@H](NC(=O)[C@@H]4CCC(=O)N4)C(=O)N[C@@H](CC(C)C)C(=O)NCC(=O)N[C@@H](Cc4ccccc4)C(=O)N[C@@H](CCSC)C(=O)N[C@@H](CCCNC(=N)N)C(=O)N[C@@H](CCCCN)C(=O)N2)NC(=O)[C@H](CSSC[C@@H](C(=O)N[C@@H](CCCCN)C(=O)N[C@@H](Cc2ccc(O)cc2)C(=O)N[C@H](C(=O)N[C@@H](Cc2ccccc2)C(N)=O)C(C)C)NC(=O)[C@H](Cc2c[nH]c4ccccc24)NC(=O)[C@H](CCCCN)NC(=O)[C@H](Cc2c[nH]cn2)NC(=O)[C@H]([C@@H](C)O)NC(=O)[C@H](CCCNC(=N)N)NC(=O)[C@H](CO)NC3=O)NC(=O)[C@H](CCCCN)NC(=O)[C@H](CC(=O)O)NC(=O)[C@H](CC(N)=O)NC(=O)[C@H](CC(=O)O)NC(=O)[C@@H]2CCCN2C1=O` [SEQ ID NO: 188] ([pGlu]CLGFMRKCIPDNDKCCRPNLVCSRTHKWCKYVF-NH2; disulfide 2-17, 9-23, 16-30): the IC50 on hNav1.5 (setting [1]) came to 10.7 µM; at hNav1.3 (setting [2]), 0.11 µM; at hNav1.7 (setting [2]) it was 0.17 µM.
